Laboratory results reported in US11053204B2, “Pyrimidinyloxy benzene derivatives as herbicides” (FMC Corporation, priority 2015, dated 2021).

Assays:
Assay type in all cases: in vivo
rice (Oryza sativa) = test: Test B flooded paddy test, plant response rating; conditions: 250 g ai/ha; Flood; scale of 0 to 100 where 0 is no effect and 100 is complete control; 13 to 15 days
In short: (§1)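 Pots were flooded to 3 cm above the soil surface at treatment, compound applied directly to the paddy water, and that depth held throughout. Plants were kept in a greenhouse for 13 to 15 days, then visually rated against untreated controls.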

[1] = tested on: sedge, umbrella (small-flower umbrella sedge, Cyperus difformis); test: Test B flooded paddy test, plant response rating; conditions: 250 g ai/ha; Flood; scale of 0 to 100 where 0 is no effect and 100 is complete control; 13 to 15 days
In short: as §1

[2] = tested on: barnyardgrass (Echinochloa crus-galli); test: Test B flooded paddy test, plant response rating; conditions: 250 g ai/ha; Flood; scale of 0 to 100 where 0 is no effect and 100 is complete control; 13 to 15 days
In short: as §1

[3] = tested on: wild poinsettia (Euphorbia heterophylla); test: Test C preemergence, plant response rating
[4] = tested on: waterhemp (common waterhemp, Amaranthus rudis); test: Test C preemergence, plant response rating; conditions: Preemergence
In short: (§2)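 Visual injury score, 0 = no effect, 100 = complete control, assigned against untreated controls after 13 to 15 d in the greenhouse. Compounds were applied in a surfactant-containing non-phytotoxic solvent mix, preemergence to seeded loam/sand or silt loam soil, or postemergence to 1- to 4-leaf plants (2 to 18 cm).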

[5] = tested on: ryegrass, Italian (Italian ryegrass, Lolium multiflorum); test: Test C preemergence, plant response rating; conditions: Preemergence
In short: as §2

[6] = tested on: blackgrass (Alopecurus myosuroides); test: Test C preemergence, plant response rating; conditions: Preemergence
In short: as §2

[7] = tested on: lambsquarters (Chenopodium album); test: Test C preemergence, plant response rating; conditions: Preemergence
In short: as §2

[8] = tested on: ragweed (common ragweed, Ambrosia elatior); test: Test C preemergence, plant response rating; conditions: Preemergence
In short: as §2

[9] = tested on: oilseed rape (Brassica napus); test: Test C preemergence, plant response rating; conditions: Preemergence
In short: as §2

[10] = tested on: foxtail, giant (giant foxtail, Setaria faberii); test: Test C preemergence, plant response rating; conditions: Preemergence
In short: as §2

[11] = tested on: nutsedge, yellow (yellow nutsedge, Cyperus esculentus); test: Test C preemergence, plant response rating; conditions: Preemergence
In short: as §2

soybean (Glycine max) = test: Test C preemergence, plant response rating; conditions: Preemergence
In short: as §2

[12] = tested on: morningglory (Ipomoea coccinea); test: Test C preemergence, plant response rating; conditions: Preemergence
In short: as §2

[13] = tested on: velvetleaf (Abutilon theophrasti); test: Test C preemergence, plant response rating; conditions: Preemergence
In short: as §2

corn (Zea mays) = test: Test C preemergence, plant response rating; conditions: Preemergence
In short: as §2

[14] = tested on: wheat (winter wheat, Triticum aestivum); test: Test C preemergence, plant response rating; conditions: Preemergence
In short: as §2

[15] = tested on: crabgrass, large (large crabgrass, Digitaria sanguinalis); test: Test C preemergence, plant response rating; conditions: Preemergence
In short: as §2

[16] = tested on: surinam grass (Brachiaria decumbens); test: Test C preemergence, plant response rating
[17] = tested on: oat, wild (wild oat Avena fatua); test: Test C preemergence, plant response rating

CCCC(=O)c1c(Oc2ncc(Cl)cn2)cccc1C(F)(F)F [Compound 136]
45: Plant response rating, Barnyardgrass [2] | Plant response rating, Oat, Wild ([17]; 125 g ai/ha, scale of 0 to 100)
70: Plant response rating, Oilseed Rape ([9]; 62 g ai/ha, scale 0 to 100) | Plant response rating, Foxtail, Giant ([10]; 62 g ai/ha, scale 0 to 100)
0: Plant response rating, Blackgrass ([6]; 16 g ai/ha, scale 0 to 100) | Plant response rating, Ragweed ([8]; 62 g ai/ha, scale 0 to 100) | Plant response rating, Nutsedge, Yellow ([11]; 31 g ai/ha, scale 0 to 100) | Plant response rating, Nutsedge, Yellow ([11]; 62 g ai/ha, scale 0 to 100) | Plant response rating, Soybean (soybean (Glycine max); 31 g ai/ha, scale 0 to 100) | Plant response rating, Morningglory ([12]; 31 g ai/ha, scale 0 to 100) | Plant response rating, Corn (corn (Zea mays); 16 g ai/ha, scale 0 to 100) | Plant response rating, Corn (corn (Zea mays); 31 g ai/ha, scale 0 to 100) | Plant response rating, Wheat ([14]; 31 g ai/ha, scale 0 to 100) | Plant response rating, Wheat ([14]; 62 g ai/ha, scale 0 to 100) | Plant response rating, Oat, Wild ([17]; 31 g ai/ha, scale 0 to 100)
65: Plant response rating, Ryegrass, Italian ([5]; 125 g ai/ha, scale of 0 to 100) | Plant response rating, Foxtail, Giant ([10]; 31 g ai/ha, scale 0 to 100) | Plant response rating, Velvetleaf ([13]; 125 g ai/ha, scale of 0 to 100)
80: Plant response rating, Sedge, Umbrella [1] | Plant response rating, Lambsquarters ([7]; 125 g ai/ha, scale of 0 to 100)
5: Plant response rating, Poinsettia, Wild ([3]; 31 g ai/ha, scale 0 to 100) | Plant response rating, Oilseed Rape ([9]; 31 g ai/ha, scale 0 to 100) | Plant response rating, Nutsedge, Yellow ([11]; 125 g ai/ha, scale of 0 to 100) | Plant response rating, Morningglory ([12]; 62 g ai/ha, scale 0 to 100) | Plant response rating, Velvetleaf ([13]; 31 g ai/ha, scale 0 to 100) | Plant response rating, Corn (corn (Zea mays); 125 g ai/ha, scale of 0 to 100) | Plant response rating, Corn (corn (Zea mays); 62 g ai/ha, scale 0 to 100) | Plant response rating, Oat, Wild ([17]; 62 g ai/ha, scale 0 to 100)
30: Plant response rating, Ryegrass, Italian ([5]; 31 g ai/ha, scale 0 to 100) | Plant response rating, Lambsquarters ([7]; 31 g ai/ha, scale 0 to 100) | Plant response rating, Morningglory ([12]; 125 g ai/ha, scale of 0 to 100)
50: Plant response rating, Poinsettia, Wild ([3]; 125 g ai/ha, scale of 0 to 100) | Plant response rating, Crabgrass, Large ([15]; 16 g ai/ha, scale 0 to 100)
10: Plant response rating, Wheat ([14]; 125 g ai/ha, scale of 0 to 100) | Plant response rating, Surinam Grass ([16]; 62 g ai/ha, scale 0 to 100)
98: Plant response rating, Oilseed Rape ([9]; 125 g ai/ha, scale of 0 to 100)
35: Plant response rating, Rice (rice (Oryza sativa)) | Plant response rating, Ryegrass, Italian ([5]; 62 g ai/ha, scale 0 to 100) | Plant response rating, Blackgrass ([6]; 31 g ai/ha, scale 0 to 100)
25: Plant response rating, Poinsettia, Wild ([3]; 62 g ai/ha, scale 0 to 100) | Plant response rating, Lambsquarters ([7]; 62 g ai/ha, scale 0 to 100) | Plant response rating, Surinam Grass ([16]; 31 g ai/ha, scale 0 to 100)
15: Plant response rating, Soybean (soybean (Glycine max); 62 g ai/ha, scale 0 to 100) | Plant response rating, Velvetleaf ([13]; 62 g ai/ha, scale 0 to 100)
85: Plant response rating, Crabgrass, Large ([15]; 31 g ai/ha, scale 0 to 100)
95: Plant response rating, Blackgrass ([6]; 125 g ai/ha, scale of 0 to 100)
40: Plant response rating, Ragweed ([8]; 125 g ai/ha, scale of 0 to 100) | Plant response rating, Soybean (soybean (Glycine max); 125 g ai/ha, scale of 0 to 100)
100: Plant response rating, Waterhemp ([4]; 125 g ai/ha, scale of 0 to 100) | Plant response rating, Waterhemp ([4]; 31 g ai/ha, scale 0 to 100) | Plant response rating, Waterhemp ([4]; 62 g ai/ha, scale 0 to 100) | Plant response rating, Foxtail, Giant ([10]; 125 g ai/ha, scale of 0 to 100) | Plant response rating, Crabgrass, Large ([15]; 125 g ai/ha, scale of 0 to 100) | Plant response rating, Crabgrass, Large ([15]; 62 g ai/ha, scale 0 to 100) | Plant response rating, Surinam Grass ([16]; 125 g ai/ha, scale of 0 to 100)
60: Plant response rating, Blackgrass ([6]; 62 g ai/ha, scale 0 to 100)
20: Plant response rating, Ragweed ([8]; 31 g ai/ha, scale 0 to 100)
